Data taken from patent EP2431041A1, “PHARMACEUTICAL COMPOSITION FOR TREATING CARDIOVASCULAR DISORDER AND USE THEREOF” (Chengdu Kanghong Pharmaceutical Co., Ltd., priority 2009, dated 2010).

Experiments:
[1] = tested on: rabbit with lipid disorders; assay: lipid disorders in rabbit, serum TC and TG (Test Example 8); type: in vivo, Japanese white rabbit
Text: Procedure: Animals were subjected to acclimation feeding for 10 days. […] After raised with the feed for 15 days, the animals were subjected to blood sampling from central ear artery while fasting. The sera were separated and analyzed for various blood lipid indices. From 40 animals raised with the high-fat feed, 30 animals were selected on the basis of TC content and assigned into five groups by randomized block design with six animals per group; six animals raised with the basal feed were used as the blank control group. […] Administration lasted for 4 weeks. […] ANOVA of randomized block design was used for comparisons among multiple groups, and SNK-q test was used for comparisons between two groups.
Blood samples were collected from the fasting animals in each of the groups of the experiment prior to the administration and in 24 h after the final administration and assayed for the content of total cholesterol (TC) and triglyceride (TG). Table 11 Effect of the drugs in each of the groups on serum TC and TG levels ( x ± s, n =6).

Beagle canines = assay: long-term toxicity test in canine (21 days): ALT in blood and other indices; type: in vivo; details: intragastric once per day
Text: Animals: Conventional, healthy adult Beagle canines, evenly composed of males and females, 6-8 month-old, body weight of 9 - 11 kg.
Medicaments: Z01 (echinocystic acid:oleanolic acid = 3:1, prepared by the method in Example 4, in which the total content of the echinocystic acid and the oleanolic acid is 99%), in-house-made off-white tablet, Lot number: 090205; Z02 (echinocystic acid:oleanolic acid = 1:1, prepared by the method in Example 1, in which the amount of echinocystic acid and oleanolic acid accounts to 94.2% of the amount of the extract), in-house-made off-white tablet, Lot number: 090206; in-house-made echinocystic acid EA (containing 98.5% of echinocystic acid), pure-white powder, Lot number: 090107; physiological saline, colorless clarified liquid, provided by Chengdu QingShan LiKang Pharmarceutical co., Ltd., Lot number: A0803025; Alanine Transarninase (ALT) Kit, provided by Sichuan MiKe Science & Technology Co., Ltd., Lot number: 1007071.
Major instruments: a fully automated blood biochemistry analyzer (Roche Integra 400 Plus, Switzerland), a fully automated hematology analyzer (Abbott CELL-DYN 3700SL, USA), a fully automated blood coagulation analyzer (SYSMEX CA-500, Japan), a four-channel physiological recording system (RM6240, Chengdu Instrument Factory, China), electronic balance, etc.
Procedure: The normal Beagle canines were subjected to quanrantine for two weeks and a dog with abnormal parameters was rejected. The selected dogs were assigned randomly into ten groups: blank control group, low dose Z01 group (the dosage of echinocystic acid, 50 mg/kg), medium dose Z01group (the dosage of echinocystic acid, 150 mg/kg), high dose Z01 group (the dosage of echinocystic acid, 250 mg/kg), Z02 low dose group (the dosage of echinocystic acid, 50 mg/kg), medium dose Z02 group (the dosage of echinocystic acid, 150 mg/kg), high dose Z02 group (echinocystic acid is 250 mg/kg), low dose EA group (50mg/kg), medium dose EA group (150mg/kg), high dose EA group (250mg/kg), with 8 animals per group evenly composed of males and females. All of the dogs in individual groups were intragastrically administered at a volume of 10 ml/kg, once per day and successively for 21 days. Prior to and at Day 21 after the administration, samples of urine excreted naturally in the morning and blood from forelimb vein were collected respectively for urine routine, blood routine, and coagulation-time determination, meanwhile the lead II electrocardiogram was traced. Prior to the administration and at Day 4, Day 7, Day 14, and Day 21 after the first administration, blood samples were collected from the canine forelimb vein and assayed on the biochemical indicator associated with liver function. In twenty-four hours after the final administration, the animals in each group were dissected, autopsied systematically and observed with naked eyes. The parenchymal organs were weighed, subjected to calculation of organ coefficients, and examined histopathologically. […] Pathologic results were descriptively discussed.

[2] = tested on: rat with an acute myocardial ischemia caused by PIT; assay: rat myocardial ischemia caused by pituitrin (PIT), ST segment of ECG (Test Example 5); type: in vivo, SD rats; details: for ΔST Σ: sum of ST segment shift; for ΔST 10 sec / ΔST 30 sec / ΔST 1 min / ΔST 2 min / ΔST 4 min / ΔST 6 min / ΔST 8 min / ΔST 10 min / ΔST 13 min / ΔST 15 min: time after PIT injection
Method: Each animal in all groups was intragastrically administered with the corresponding drug at a volume of 10 ml/kg, for 7 successive days. The rat was injected intraperitoneally with 1% sodium pentobarbital (30 mg/kg) 100 min after the final administration. When anesthetized, the animal was immobilized onto a frog board and subjected to trace of normal electrocardiogram over 2 min with Lead II. Then, PIT (1.5 IU/kg) was injected slowly over 20 s into the rat through its tail vein. The changes in the electrocardiogram were traced in 15 min after PIT injection. The data from the ST segment were collected at the time-points of 10 s, 30 s, 1 min, 2 min, 4 min, 6 min, 8 min, 10 min, 13 min, and 15 min. ST segment shifts at the various time-points after modeling were compared.

[3] = EA 12.2 mg/kg intragastric 4 weeks
[4] = echinocystic acid content 50 mg/kg
[5] = echinocystic acid content 150 mg/kg
[6] = echinocystic acid content 250 mg/kg
[7] = EA 50.8 mg/kg intragastric 7 days
[8] = OA 4.0 mg/kg intragastric 4 weeks
[9] = OA 17.0 mg/kg intragastric 7 days

Compound: CC1(C)CC[C@]2(C(=O)O)[C@H](O)C[C@]3(C)C(=CC[C@@H]4[C@@]5(C)CC[C@H](O)C(C)(C)[C@@H]5CC[C@]43C)[C@@H]2C1 [EA, echinocystic acid]
- Serum TC After administration [1, 3]: 9.77 ± 6.30 mmol/L
- Serum TC prior to administration [1, 3]: 15.07 ± 5.48 mmol/L
- Serum TG After administration [1, 3]: 1.64 ± 0.89 mmol/L
- Serum TG prior to administration [1, 3]: 2.17 ± 1.04 mmol/L
- ALT at different time-points after administration, Day 4 (Beagle canines; [4]): 41.4±9.3 U/L
- ALT at different time-points after administration, Day 7 (Beagle canines; [4]): 60.3±11.6 U/L
- ALT at different time-points after administration, Day 14 (Beagle canines; [4]): 58.3±9.1 U/L
- ALT at different time-points after administration, Day 21 (Beagle canines; [4]): 69.7±6.2 U/L
- ALT, Prior to administration (Beagle canines; [4]): 38.8±5.8 U/L
- ALT at different time-points after administration, Day 4 (Beagle canines; [5]): 42.6±8.9 U/L
- ALT at different time-points after administration, Day 7 (Beagle canines; [5]): 70.6±22.3 U/L
- ALT at different time-points after administration, Day 14 (Beagle canines; [5]): 121.3±19.3 U/L
- ALT at different time-points after administration, Day 21 (Beagle canines; [5]): 124.5±35.3 U/L
- ALT, Prior to administration (Beagle canines; [5]): 40.3±6.2 U/L
- ALT at different time-points after administration, Day 4 (Beagle canines; [6]): 45.4±9.9 U/L
- ALT at different time-points after administration, Day 7 (Beagle canines; [6]): 146.5±49.0 U/L
- ALT at different time-points after administration, Day 14 (Beagle canines; [6]): 167.5±43.3 U/L
- ALT at different time-points after administration, Day 21 (Beagle canines; [6]): 151.3±86.6 U/L
- ALT, Prior to administration (Beagle canines; [6]): 37.3±5.2 U/L
- ΔST Σ [2, 7]: 0.653± 0.367 mV
- ΔST 10 sec [2, 7]: 0.089± 0.089 mV
- ΔST 30 sec [2, 7]: 0.060± 0.053 mV
- ΔST 1 min [2, 7]: 0.064± 0.032 mV
- ΔST 2 min [2, 7]: 0.075± 0.063 mV
- ΔST 4 min [2, 7]: 0.060± 0.039 mV
- ΔST 6 min [2, 7]: 0.063± 0.045 mV
- ΔST 8 min [2, 7]: 0.070± 0.048 mV
- ΔST 10 min [2, 7]: 0.061± 0.042 mV
- ΔST 13 min [2, 7]: 0.055± 0.039 mV
- ΔST 15 min [2, 7]: 0.056± 0.048 mV

Compound: CC1(C)CC[C@]2(C(=O)O)CC[C@]3(C)C(=CC[C@@H]4[C@@]5(C)CC[C@H](O)C(C)(C)[C@@H]5CC[C@]43C)[C@@H]2C1 [OA, oleanolic acid]
- Serum TC After administration [1, 8]: 12.05 ± 6.48 mmol/L
- Serum TC prior to administration [1, 8]: 14.97 ± 5.22 mmol/L
- Serum TG After administration [1, 8]: 1.83 ± 1.02 mmol/L
- Serum TG prior to administration [1, 8]: 2.06 ± 0.44 mmol/L
- ΔST Σ [2, 9]: 0.739± 0.408Δ mV
- ΔST 10 sec [2, 9]: 0.132± 0.113 mV
- ΔST 30 sec [2, 9]: 0.068± 0.044 mV
- ΔST 1 min [2, 9]: 0.079± 0.052 mV
- ΔST 2 min [2, 9]: 0.061± 0.034 mV
- ΔST 4 min [2, 9]: 0.082± 0.055 mV
- ΔST 6 min [2, 9]: 0.080± 0.067 mV
- ΔST 8 min [2, 9]: 0.073± 0.037 mV
- ΔST 10 min [2, 9]: 0.051± 0.032 mV
- ΔST 13 min [2, 9]: 0.060± 0.037 mV
- ΔST 15 min [2, 9]: 0.053± 0.042 mV
